Tests used:
[1] = Sweetness intensity and quality of taste of steviol glycosides reported by Kinghorn (2002); settings: from the Kinghorn values
Description: In the book “Stevia, The genus Stevia”, edited by A. Douglas Kinghorn (2002), the structural differences, sweetness intensity and quality of taste between the steviol glycosides is reported on page 138. The relative quality of taste, as compared to stevioside, (i.e., stevioside is rated 0) of rebaudioside D was rated higher (+3) than rebaudioside A was rated (+2). Particular taste attributes that contributed to the quality of taste, however, were not individually rated. The sweetness of rebaudioside A was reported to have a value of 242, whereas the sweetness of rebaudioside D was reported to have a value of 221.

[2] = tested on: sensory panel of twelve testers; experiment: Sensory panel evaluation in water, noncarbonated beverage base and carbonated beverage base (Example 2); assay type: in vivo; parameters: Sweetness / Bitterness: scale not given here; settings: for interaction between the sweetener and the three beverage bases (initial sweetness attribute plots): water, noncarbonated and carbonated beverage base; for Reb D Compared to Reb A % Ratio, Bitterness / Reb D Compared to Reb A % Ratio, Sweetness: ratio of Reb D to Reb A
Description: Potential beverage base effects on the initial sweetness perception of rebaudioside D were investigated by performing tests of three concentrations of rebaudioside D (Reb D) in water, in a noncarbonated beverage base, and in a carbonated beverage base, by a sensory panel of twelve testers. The numerical data generated by the sensory panel testers were then analyzed for their statistical significance.
The water employed for the tests of this Example comprised the characteristics as described in Example 1. The noncarbonated beverage base comprised purified water, and citric acid in an amount sufficient to decrease the pH of the noncarbonated beverage base to 3.1. The carbonated beverage base comprised purified water, carbon dioxide, and citric acid in an amount sufficient to decrease the pH of the noncarbonated beverage base to about 3.1. The initial sweetness characteristics of 606 parts per million (ppm) Reb D in water were compared to the initial sweetness characteristics of 606 ppm Reb D in noncarbonated beverage base and 606 ppm Reb D in carbonated beverage base.
The specific attributes tested by the sensory panel comprised sweetness, thickness, astringency, bitterness, numbing, cooling, licorice, burn/tingle and mouthcoat.

[3] = commonly accepted potency figures; cited from earlier work
Water solubility = assay type: physicochemical; settings: commercially available Reb D
Description: The water solubility of commercially available Reb D is low, thus, according to certain embodiments of the invention, rebaudioside D is provided as a supersaturated solution of rebaudioside D in the beverage products disclosed herein. As used herein, the term “saturated” refers to the point of maximum concentration at which a solution of a substance (e.g., a rebaudioside D solution) can dissolve no more of that substance. The saturation point of a substance depends on the temperature of the liquid the substance is to be dissolved in, as well as the chemical natures of the liquid and the substance involved (e.g., the water and/or the rebaudioside D). As used herein, the term “supersaturated” refers to a solution that contains more of a dissolved material (e.g., rebaudioside D) than a saturated solution. Supersaturated solutions are typically achieved when one or more conditions of a saturated solution is changed, such as, e.g., temperature, volume (e.g., by evaporation), pressure or the like.

[4] = tested on: sensory panel of twelve testers; experiment: Sensory panel evaluation of initial sweetness characteristics of sweeteners in water (Example 1); assay type: in vivo; settings: for behavior as compared to sucrose, all concentrations plotted: FIG. 12; for initial sweetness perception: FIG. 2/FIG. 4; for initial bitterness perception: FIG. 3/FIG. 5
Description: Sensory evaluations of different sweeteners at various concentrations were performed to provide comparative analysis of organoleptic characteristics of aqueous solutions of rebaudioside D, versus other sweeteners. The rebaudioside D was a stevia extract having a purity of at least 93% by weight rebaudioside D (Reb D). Initial sweetness characteristics of three concentrations of such Reb D in water were determined by a sensory panel of twelve testers. Sensory panels are well known to those of skill in the art, and comprise testers trained to evaluate the organoleptic attributes of comestibles. Typically, sensory panelists have been screened for their taste acuity and extensively trained in the use of standardized vocabulary to describe the appearance, aroma, flavor, mouthfeel and aftertaste of a wide variety of products, as well as scaling techniques to quantify the attributes. The numerical data generated by the sensory panel testers were then analyzed for their statistical significance.
The water employed in the tests of Example 1 comprised purified water as described in detail above, and having a pH of 7.0. The initial sweetness characteristics of 1200 parts per million (ppm) Reb D in water were compared to the initial sweetness characteristics of aqueous solutions of each of 1200 ppm rebaudioside A (Reb A), sucrose, aspartame and sucralose. The rebaudioside A was a stevia extract comprising a purity of 95% by weight rebaudioside A (PureCircle USA Inc., Oak Brook, Ill.). The specific attributes tested by the sensory panel comprised sweetness, thickness, astringency, bitterness, numbing, cooling and licorice.
The initial sweetness characteristics of other concentrations of rebaudioside D in water were also tested and compared to the same concentrations of rebaudioside A in water. […] FIGS. 2 through 5 illustrate the differences in the characteristics of sweetness and bitterness attributes between Reb D and Reb A.

[5] = Kinghorn (2002) page 138, cited from earlier work
[6] = 360 ppm, averaged across all three beverage bases
[7] = 606 ppm, averaged across all three beverage bases
[8] = 1200 ppm, averaged across all three beverage bases
[9] = CSD (carbonated beverage base), 360 ppm
[10] = CSD (carbonated beverage base), 606 ppm
[11] = High Level, 1200 ppm, averaged across all three beverage bases
[12] = Low-Medium Level, 360 ppm, averaged across all three beverage bases
[13] = Medium Level, 606 ppm, averaged across all three beverage bases
[14] = NCB (noncarbonated beverage base), 360 ppm
[15] = NCB (noncarbonated beverage base), 606 ppm

In the case of C=C1C[C@@]23CC[C@H]4[C@@](C)(CCC[C@@]4(C)C(=O)O[C@@H]4O[C@H](CO)[C@@H](O)[C@H](O)[C@H]4O[C@@H]4O[C@H](CO)[C@@H](O)[C@H](O)[C@H]4O)[C@@H]2CC[C@]1(O[C@@H]1O[C@H](CO)[C@@H](O)[C@H](O[C@@H]2O[C@H](CO)[C@@H](O)[C@H](O)[C@H]2O)[C@H]1O[C@@H]1O[C@H](CO)[C@@H](O)[C@H](O)[C@H]1O)C3 [Reb D, rebaudioside D], the “sweetness less than the sweetness of rebaudioside A” value [1] is reported as “approximately 10%”, the “average bitterness in each of the three beverage bases versus Reb A” value ([2]; 360 ppm) is reported as “lower average bitterness” and the “average sweetness in each of the three beverage bases versus Reb A” value ([2]; 360 ppm) is reported as “greater average sweetness”. For the same compound, the “interaction between the sweetener and the three beverage bases (initial sweetness attribute plots)” value ([2]; 360 ppm (sucrose 5.4 brix), FIGS. 16-18) was “no significant interaction”, the “Reb D Compared to Reb A % Ratio, Bitterness” value [2, 6] was 37% and the “Reb D Compared to Reb A % Ratio, Sweetness” value [2, 6] was 115%. The “average bitterness in each of the three beverage bases versus Reb A” value ([2]; 606 ppm) was “lower average bitterness”, the “average sweetness in each of the three beverage bases versus Reb A” value ([2]; 606 ppm) was “greater average sweetness” and the “interaction between the sweetener and the three beverage bases (initial sweetness attribute plots)” value ([2]; 606 ppm (sucrose 8.5 brix), FIGS. 13-15) was “no significant interaction”. For the same compound, the “Reb D Compared to Reb A % Ratio, Bitterness” value [2, 7] was 30%, the “Reb D Compared to Reb A % Ratio, Sweetness” value [2, 7] was 117% and the “Reb D Compared to Reb A % Ratio, Bitterness” value [2, 8] was 40%. For the same compound, the “Reb D Compared to Reb A % Ratio, Sweetness” value [2, 8] was 150%, the Bitterness [2, 9] was 18.1 and the Sweetness [2, 9] was 63.4. It also gave a Bitterness [2, 10] of 14.1, a Sweetness [2, 10] of 73.9 and a Bitterness [2, 11] of 17.4. For the same compound, the Sweetness [2, 11] was 105.5, the Bitterness [2, 12] was 7.7 and the Sweetness [2, 12] was 60.6. It also gave a Bitterness [2, 13] of 9.8, a Sweetness [2, 13] of 74.3 and a Bitterness [2, 14] of 10.7. The Sweetness [2, 14] was 58.9, the Bitterness [2, 15] was 7.4 and the Sweetness [2, 15] was 85.1. For the same compound, the Bitterness ([2]; Water, 360 ppm) was 7.7, the Sweetness ([2]; Water, 360 ppm) was 60.6 and the Bitterness ([2]; Water, 606 ppm) was 9.8. The Sweetness ([2]; Water, 606 ppm) was 74.3, the “potency, times as sweet as sugar” value [3] was 150-300 times as sweet as sugar and the water solubility (Water solubility) was “low”. The “overall attributes versus Reb A” value ([4]; 360, 606 and 1200 ppm in water, FIG. 8) was “less bitterness and astringency”, the “behavior as compared to sucrose, all concentrations plotted” value ([4]; 360 ppm and 606 ppm Reb D in water) was “behaved more like sucrose than did any of the concentrations of Reb A” and the “attributes of lower levels versus the same levels of Reb A” value ([4]; 360 ppm and 606 ppm in water, FIG. 8) was “less bitter, astringent, numbing and licorice”. The “bitterness perception value less than same concentration of Reb A” value ([4]; 360 ppm in water) was “about 30”, the initial sweetness perception ([4]; 360 ppm in water) was “about 62” and the initial bitterness perception ([4]; 360 ppm in water) was “about 8”. For the same compound, the “initial sweetness attributes versus the same concentration of Reb A” value ([4]; 360 ppm in water, FIG. 7) was “significantly less astringency, bitterness and numbing”, the “relative sweet properties (continuum regular sweet to artificial sweet-like) versus same concentration of Reb A” value (from here on “relative sweet properties”) ([4]; 360 ppm in water, FIG. 11) was “behaved more like sucrose” and the “bitterness perception value less than same concentration of Reb A” value ([4]; 600 ppm in water) was “about 47”. The “initial sweetness attributes versus the same concentration of Reb A” value ([4]; 606 ppm in water, FIG. 6) was “significantly less astringency, bitterness and numbing”, the “relative sweet properties” value ([4]; 606 ppm in water, FIG. 10) was “behaved more like sucrose” and the “behavior as compared to sucrose, all concentrations plotted” value ([4]; 1200 ppm Reb D in water) was “behaved more like sucrose than did either 606 ppm Reb A or 1200 ppm Reb A”. For the same compound, the “bitterness perception value less than same concentration of Reb A” value ([4]; 1200 ppm in water) was “about 67”, the “initial sweetness attributes versus the same concentration of Reb A” value ([4]; 1200 ppm in water, FIG. 1) was “significantly less astringency, bitterness and numbing” and the initial sweetness perception ([4]; 1200 ppm in water) was “about 108”. The initial bitterness perception ([4]; 1200 ppm in water) was “about 18”, the “relative sweet properties” value ([4]; 1200 ppm in water, FIG. 9) was “behaved more like sucrose” and the “numerical value of the bitterness perception versus Reb A” value ([4]; all concentrations in water) was “significantly lower”. For the same compound, the “change in sweetness perception with an increase in concentration” value ([4]; in water, 360 to 1200 ppm) was “significant increase in sweetness perception”, the “increase in bitterness perception with an increase in concentration, versus Reb A” value ([4]; in water, 360 to 1200 ppm) was “substantially lower” and the “licorice attribute, 606 ppm Reb D versus 1200 ppm Reb D” value ([4]; in water, FIG. 6) was “lower value”. For the same compound, the “correlation to the sweetness perception attributes of sucrose, versus rebaudioside A” value ([4]; in water, FIG. 8) was “more highly correlated”, the “sweetness (value reported by Kinghorn)” value [5] was 221 and the “relative quality of taste, as compared to stevioside” value ([5]; stevioside is rated 0) was “+3”.

From patent publication US20130071521A1, “REBAUDIOSIDE D SWEETENERS AND FOOD PRODUCTS SWEETENED WITH REBAUDIOSIDE D” (PEPSICO, INC., priority 2007, published 2013)
